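Test compounds were applied to cells in 96-well plates for 48 hours at 5 doses. GI50: concentration for 50% inhibition of growth. The concentration for full growth arrest is given as TGI.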
Tests used:
Test in all cases: NCI tumour cell line growth inhibition, 48 h
HOP-92 NSCLC = tested on: HOP-92 NSCLC
SK-MEL-5 melanoma = tested on: SK-MEL-5 melanoma
UACC-257 melanoma = tested on: UACC-257 melanoma
HT29 colon = tested on: HT29 colon
U251 CNS = tested on: U251 CNS
BT-549 breast = tested on: BT-549 breast
DU-145 prostate = tested on: DU-145 prostate
NCI/ADR-RES ovarian = tested on: NCI/ADR-RES ovarian
RXF 393 renal = tested on: RXF 393 renal
SN12C renal = tested on: SN12C renal
SR leukemia = tested on: SR leukemia
NCI-H460 lung = tested on: NCI-H460 lung
IGROV1 ovarian = tested on: IGROV1 ovarian
NCI-H226 lung = tested on: NCI-H226 lung
UO-31 renal = tested on: UO-31 renal
MDA-MB-231 breast = tested on: MDA-MB-231 breast
RPMI-8226 leukemia = tested on: RPMI-8226 leukemia
PC-3 prostate = tested on: PC-3 prostate
A498 renal = tested on: A498 renal
EKVX NSCLC = tested on: EKVX NSCLC
OVCAR-3 ovarian = tested on: OVCAR-3 ovarian
HCC-2998 colon = tested on: HCC-2998 colon
MDA-MB-435 = tested on: MDA-MB-435
NCI-H522 lung = tested on: NCI-H522 lung
SK-MEL-2 melanoma = tested on: SK-MEL-2 melanoma
UACC-62 melanoma = tested on: UACC-62 melanoma
HS 578T breast = tested on: HS 578T breast
SF-268 CNS = tested on: SF-268 CNS
COLO 205 colon = tested on: COLO 205 colon
786-0 renal = tested on: 786-0 renal
OVCAR-4 ovarian = tested on: OVCAR-4 ovarian
HCT-116 colon = tested on: HCT-116 colon
SNB-75 CNS = tested on: SNB-75 CNS
SF-539 CNS = tested on: SF-539 CNS
NCI-H23 lung = tested on: NCI-H23 lung
SW-620 colon = tested on: SW-620 colon
K-562 leukemia = tested on: K-562 leukemia
CCRF-CEM leukemia = tested on: CCRF-CEM leukemia
MALME-3M melanoma = tested on: MALME-3M melanoma
T-47D breast = tested on: T-47D breast
HCT-15 colon = tested on: HCT-15 colon
M14 melanoma = tested on: M14 melanoma
KM12 colon = tested on: KM12 colon
SK-MEL-28 melanoma = tested on: SK-MEL-28 melanoma
HL-60(TB) leukemia = tested on: HL-60(TB) leukemia
MCF7 breast = tested on: MCF7 breast
OVCAR-8 ovarian = tested on: OVCAR-8 ovarian
SNB-19 CNS = tested on: SNB-19 CNS
OVCAR-5 ovarian = tested on: OVCAR-5 ovarian
HOP-62 NSCLC = tested on: HOP-62 NSCLC
SK-OV-3 ovarian = tested on: SK-OV-3 ovarian
SF-295 CNS = tested on: SF-295 CNS
A549 NSCLC = tested on: A549 NSCLC
LOX IMVI melanoma = tested on: LOX IMVI melanoma
ACHN renal = tested on: ACHN renal
TK-10 renal = tested on: TK-10 renal
CAKI-1 renal = tested on: CAKI-1 renal

Compound: CC1=C(CCC(C)N(C)Cc2ccc(OCCCN3CCCC3)cc2)C(C)(C)CCC1 (centres undefined)
- GI50 (HOP-92 NSCLC): 2.83 µM
- TGI (HOP-92 NSCLC): 13.1 µM
- GI50 (SK-MEL-5 melanoma): 1.75 µM
- TGI (SK-MEL-5 melanoma): 3.15 µM
- GI50 (UACC-257 melanoma): 2.25 µM
- TGI (UACC-257 melanoma): 4.12 µM
- GI50 (HT29 colon): 0.764 µM
- TGI (HT29 colon): 6.94 µM
- GI50 (U251 CNS): 2.46 µM
- TGI (U251 CNS): 6.38 µM
- GI50 (BT-549 breast): 12.3 µM
- TGI (BT-549 breast): 27.1 µM
- GI50 (DU-145 prostate): 10.8 µM
- TGI (DU-145 prostate): 23.4 µM
- GI50 (NCI/ADR-RES ovarian): 10.4 µM
- TGI (NCI/ADR-RES ovarian): 25 µM
- GI50 (RXF 393 renal): 2.59 µM
- TGI (RXF 393 renal): 10.2 µM
- GI50 (SN12C renal): 11 µM
- TGI (SN12C renal): 24.8 µM
- GI50 (SR leukemia): 0.744 µM
- TGI (SR leukemia): 3.89 µM
- GI50 (NCI-H460 lung): 3.02 µM
- TGI (NCI-H460 lung): 8.81 µM
- GI50 (IGROV1 ovarian): 4.03 µM
- TGI (IGROV1 ovarian): 16.6 µM
- GI50 (NCI-H226 lung): 18.8 µM
- TGI (NCI-H226 lung): 37.3 µM
- GI50 (UO-31 renal): 3.2 µM
- TGI (UO-31 renal): 13.3 µM
- GI50 (MDA-MB-231 breast): 1.89 µM
- TGI (MDA-MB-231 breast): 4.48 µM
- GI50 (RPMI-8226 leukemia): 2.9 µM
- TGI (RPMI-8226 leukemia): 8.65 µM
- GI50 (PC-3 prostate): 3.28 µM
- TGI (PC-3 prostate): 14.1 µM
- GI50 (A498 renal): 10.4 µM
- TGI (A498 renal): 22.7 µM
- GI50 (EKVX NSCLC): 9.07 µM
- TGI (EKVX NSCLC): 23.2 µM
- GI50 (OVCAR-3 ovarian): 5.72 µM
- TGI (OVCAR-3 ovarian): 19.3 µM
- GI50 (HCC-2998 colon): 1.5 µM
- TGI (HCC-2998 colon): 4 µM
- GI50 (MDA-MB-435): 1.43 µM
- TGI (MDA-MB-435): 2.85 µM
- GI50 (NCI-H522 lung): 2.33 µM
- TGI (NCI-H522 lung): 4.99 µM
- GI50 (SK-MEL-2 melanoma): 2.96 µM
- TGI (SK-MEL-2 melanoma): 7.49 µM
- GI50 (UACC-62 melanoma): 2.11 µM
- TGI (UACC-62 melanoma): 4.17 µM
- GI50 (HS 578T breast): 2.53 µM
- TGI (HS 578T breast): 9.73 µM
- GI50 (SF-268 CNS): 4.07 µM
- TGI (SF-268 CNS): 17.5 µM
- GI50 (COLO 205 colon): 1.56 µM
- TGI (COLO 205 colon): 3.42 µM
- GI50 (786-0 renal): 2.59 µM
- TGI (786-0 renal): 11.7 µM
- GI50 (OVCAR-4 ovarian): 7.76 µM
- TGI (OVCAR-4 ovarian): 21.4 µM
- GI50 (HCT-116 colon): 2.82 µM
- TGI (HCT-116 colon): 12.1 µM
- GI50 (SNB-75 CNS): 1.58 µM
- TGI (SNB-75 CNS): 3.92 µM
- GI50 (SF-539 CNS): 1.66 µM
- TGI (SF-539 CNS): 3.28 µM
- GI50 (NCI-H23 lung): 10.4 µM
- TGI (NCI-H23 lung): 24.9 µM
- GI50 (SW-620 colon): 3.01 µM
- TGI (SW-620 colon): 10.8 µM
- GI50 (K-562 leukemia): 1.67 µM
- TGI (K-562 leukemia): 4.06 µM
- GI50 (CCRF-CEM leukemia): 2.66 µM
- TGI (CCRF-CEM leukemia): 11.6 µM
- GI50 (MALME-3M melanoma): 1.67 µM
- TGI (MALME-3M melanoma): 3.23 µM
- GI50 (T-47D breast): 1.72 µM
- TGI (T-47D breast): 4.97 µM
- GI50 (HCT-15 colon): 1.42 µM
- TGI (HCT-15 colon): 4.8 µM
- GI50 (M14 melanoma): 1.75 µM
- TGI (M14 melanoma): 3.7 µM
- GI50 (KM12 colon): 4.6 µM
- TGI (KM12 colon): 17.7 µM
- GI50 (SK-MEL-28 melanoma): 1.68 µM
- TGI (SK-MEL-28 melanoma): 3.5 µM
- GI50 (HL-60(TB) leukemia): 3.87 µM
- TGI (HL-60(TB) leukemia): 20.4 µM
- GI50 (MCF7 breast): 1.63 µM
- TGI (MCF7 breast): 3.65 µM
- GI50 (OVCAR-8 ovarian): 5.75 µM
- TGI (OVCAR-8 ovarian): 19.9 µM
- GI50 (SNB-19 CNS): 3.61 µM
- TGI (SNB-19 CNS): 12 µM
- GI50 (OVCAR-5 ovarian): 3.2 µM
- TGI (OVCAR-5 ovarian): 11.1 µM
- GI50 (HOP-62 NSCLC): 3.54 µM
- TGI (HOP-62 NSCLC): 17.5 µM
- GI50 (SK-OV-3 ovarian): 11.4 µM
- TGI (SK-OV-3 ovarian): 23.8 µM
- GI50 (SF-295 CNS): 1.89 µM
- TGI (SF-295 CNS): 4.09 µM
- GI50 (A549 NSCLC): 6.48 µM
- TGI (A549 NSCLC): 20.5 µM
- GI50 (LOX IMVI melanoma): 1.66 µM
- TGI (LOX IMVI melanoma): 3.18 µM
- GI50 (ACHN renal): 3.29 µM
- TGI (ACHN renal): 11.3 µM
- GI50 (TK-10 renal): 12.5 µM
- TGI (TK-10 renal): 26.7 µM
- GI50 (CAKI-1 renal): 11.3 µM
- TGI (CAKI-1 renal): 24.3 µM
